The source made the active and inactive calls.
Tests used:
Orexin receptor type 2 [1] = target: T1, Orexin receptor type 2 (Homo sapiens, UniProt O43614); experiment: Counterscreen assay for antagonists of the orexin 1 receptor (OX1R; HCRTR1): Fluorescence-based cell-based dose response assay for antagonists of the orexin 2 receptor (OX2R; HCRTR2), run by assay provider.; type: functional
T1 sequence (O43614 whole entry): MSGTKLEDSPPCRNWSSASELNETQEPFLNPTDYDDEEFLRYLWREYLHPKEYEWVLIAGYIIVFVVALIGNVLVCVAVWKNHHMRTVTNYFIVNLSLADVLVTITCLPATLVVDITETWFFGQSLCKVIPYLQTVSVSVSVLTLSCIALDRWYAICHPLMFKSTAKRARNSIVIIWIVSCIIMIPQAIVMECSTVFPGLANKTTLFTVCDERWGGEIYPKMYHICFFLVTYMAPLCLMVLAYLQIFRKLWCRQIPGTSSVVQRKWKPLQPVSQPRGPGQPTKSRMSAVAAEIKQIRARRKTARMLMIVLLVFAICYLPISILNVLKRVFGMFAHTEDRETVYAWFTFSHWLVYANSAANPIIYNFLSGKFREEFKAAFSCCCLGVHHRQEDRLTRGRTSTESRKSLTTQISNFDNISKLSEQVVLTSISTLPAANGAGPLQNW

[2] = (§1) Counterscreen for antagonists of the orexin 1 receptor (OX1R; HCRTR1): Fluorescence-based cell-based high throughput dose response assay to identify antagonists of the parental CHO cell line. [Related pubchem assays (depositor defined):AID434989, AID435008, AID463079, AID485270, AID492963, AID492964, AID492965, AID493232, AID504699, AID504701]; type: functional
H4 = experiment: Luminescence Cell-Based Dose Response HTS to Identify Activators of 5'UTR Stem-Loop Driven Prion Protein mRNA Translation in H4 Neuroglioblastoma Cells. [Related pubchem assays: 1829 (Project Summary), 1814 (Primary HTS)]; type: functional; conditions: Homo sapiens
Orexin receptor type 2 [3] = target: T1, Orexin receptor type 2; experiment: Counterscreen assay for antagonists of the orexin 1 receptor (OX1R; HCRTR1): Homogeneous Time Resolved Fluorescence (HTRF)-based cell-based dose response assay for antagonists of the orexin 2 receptor (OX2R; HCRTR2), run by assay provider.; type: functional
[4] = Luminescence Cell-Based Dose Response HTS to Identify Activators of Luciferase Translation or Activity in H4 […] Cells. [Related pubchem assays: 1829 (Project Summary), 1814 (Primary HTS)]; type: functional
[5] = Luminescence Cell-Based Dose Confirmation HTS to Identify Activators of 5'UTR Stem-Loop Driven Alpha-Synuclein mRNA Translation in H4 Neuroglioblastoma Cells. [Related pubchem assays: 1829 (Project Summary), 1814 (Primary HTS)]; type: functional
CHO-K1 = experiment: as §1, with “Homogeneous time resolved fluorescence (HTRF)-based” for “Fluorescence-based”, “cell-based” for “cell-based high throughput”, “CHO-K1” for “CHO”; type: functional; conditions: Cricetulus griseus
[6] = target: T2, Orexin/Hypocretin receptor type 1 (Homo sapiens, UniProt O43613); experiment: (§2) Fluorescence-based cell-based high throughput dose response assay for antagonists of the orexin 1 receptor (OX1R; HCRTR1). [Related pubchem assays (depositor defined):AID434989, AID435008, AID463079, AID485270, AID492963, AID492964, AID492965, AID493232, AID504717, AID504718]; type: functional
T2 sequence (O43613 whole entry): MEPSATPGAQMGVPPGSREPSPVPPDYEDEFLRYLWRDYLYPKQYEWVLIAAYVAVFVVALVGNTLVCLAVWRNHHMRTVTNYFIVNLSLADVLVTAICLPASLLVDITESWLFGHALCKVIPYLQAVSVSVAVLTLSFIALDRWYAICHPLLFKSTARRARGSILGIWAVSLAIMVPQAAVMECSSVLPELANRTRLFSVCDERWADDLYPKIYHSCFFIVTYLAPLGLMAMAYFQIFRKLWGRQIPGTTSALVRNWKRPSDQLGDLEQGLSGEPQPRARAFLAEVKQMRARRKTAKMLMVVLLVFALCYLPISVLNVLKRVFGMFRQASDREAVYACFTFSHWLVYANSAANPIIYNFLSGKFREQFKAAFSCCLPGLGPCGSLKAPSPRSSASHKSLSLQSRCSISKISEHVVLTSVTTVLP

[7] = target: T2, Orexin/Hypocretin receptor type 1; experiment: as §2, with “Homogeneous Time Resolved Fluorescence (HTRF)-based” for “Fluorescence-based”; type: functional
[8] = target: Ras and Rab interactor 1/Tyrosine-protein kinase ABL1 (Homo sapiens, UniProt P00519+Q13671); type: functional;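 note: biochemical TR-FRET dose-response test measuring inhibition of binding between Rin1 and Abl proteins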
Ras and Rab interactor 1/Tyrosine-protein kinase ABL1, sequence (P00519 whole entry): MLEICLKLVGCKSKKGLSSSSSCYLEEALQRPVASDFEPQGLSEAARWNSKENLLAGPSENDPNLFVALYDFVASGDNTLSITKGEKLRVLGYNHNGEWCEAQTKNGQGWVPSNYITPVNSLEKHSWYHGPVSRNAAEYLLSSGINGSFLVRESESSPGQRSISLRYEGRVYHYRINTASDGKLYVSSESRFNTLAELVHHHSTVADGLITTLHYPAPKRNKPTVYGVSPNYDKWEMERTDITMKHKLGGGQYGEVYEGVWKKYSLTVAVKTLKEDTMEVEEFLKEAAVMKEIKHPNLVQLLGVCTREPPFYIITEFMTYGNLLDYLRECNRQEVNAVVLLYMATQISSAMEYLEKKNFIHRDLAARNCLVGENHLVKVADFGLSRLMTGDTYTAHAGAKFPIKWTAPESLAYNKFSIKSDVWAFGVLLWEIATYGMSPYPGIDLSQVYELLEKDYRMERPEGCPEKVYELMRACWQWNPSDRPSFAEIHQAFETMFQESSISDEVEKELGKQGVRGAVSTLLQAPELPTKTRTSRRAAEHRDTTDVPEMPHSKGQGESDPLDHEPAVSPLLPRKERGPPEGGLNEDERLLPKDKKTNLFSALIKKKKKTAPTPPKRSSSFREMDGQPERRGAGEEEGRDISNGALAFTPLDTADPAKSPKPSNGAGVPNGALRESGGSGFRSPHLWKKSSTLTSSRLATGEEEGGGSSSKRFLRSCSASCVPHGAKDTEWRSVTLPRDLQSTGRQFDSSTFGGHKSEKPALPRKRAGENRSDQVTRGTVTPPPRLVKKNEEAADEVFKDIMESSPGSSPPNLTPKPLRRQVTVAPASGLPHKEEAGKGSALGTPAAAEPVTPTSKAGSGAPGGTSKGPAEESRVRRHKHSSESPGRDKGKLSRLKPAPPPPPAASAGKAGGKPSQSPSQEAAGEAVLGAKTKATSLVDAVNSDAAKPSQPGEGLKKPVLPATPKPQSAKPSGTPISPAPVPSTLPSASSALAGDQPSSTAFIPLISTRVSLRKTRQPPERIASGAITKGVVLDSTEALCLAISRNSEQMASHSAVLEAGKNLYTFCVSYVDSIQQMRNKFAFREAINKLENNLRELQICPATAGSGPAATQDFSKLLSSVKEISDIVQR
Ras and Rab interactor 1/Tyrosine-protein kinase ABL1, sequence (Q13671 whole entry): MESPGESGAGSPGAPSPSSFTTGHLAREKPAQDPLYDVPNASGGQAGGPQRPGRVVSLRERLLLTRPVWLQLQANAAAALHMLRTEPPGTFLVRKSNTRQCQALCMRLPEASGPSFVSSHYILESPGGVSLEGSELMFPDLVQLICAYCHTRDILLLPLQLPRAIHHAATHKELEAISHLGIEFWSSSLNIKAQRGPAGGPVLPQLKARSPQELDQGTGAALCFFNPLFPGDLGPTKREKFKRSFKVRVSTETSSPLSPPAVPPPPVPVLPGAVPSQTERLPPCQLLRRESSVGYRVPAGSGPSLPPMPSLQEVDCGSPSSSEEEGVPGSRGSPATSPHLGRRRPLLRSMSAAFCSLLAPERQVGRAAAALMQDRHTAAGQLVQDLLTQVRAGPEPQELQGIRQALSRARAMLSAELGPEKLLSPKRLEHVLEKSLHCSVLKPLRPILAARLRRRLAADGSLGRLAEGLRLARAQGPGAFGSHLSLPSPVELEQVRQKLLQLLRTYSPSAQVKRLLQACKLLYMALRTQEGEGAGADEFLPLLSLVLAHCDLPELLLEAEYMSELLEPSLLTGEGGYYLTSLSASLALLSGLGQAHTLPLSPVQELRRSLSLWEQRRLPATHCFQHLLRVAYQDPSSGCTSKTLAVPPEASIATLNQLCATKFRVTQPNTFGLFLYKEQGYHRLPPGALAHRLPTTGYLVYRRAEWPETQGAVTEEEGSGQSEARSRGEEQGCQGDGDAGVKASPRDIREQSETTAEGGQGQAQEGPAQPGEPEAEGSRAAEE

[9] = target: T3, Sentrin-specific protease 8 (Homo sapiens, UniProt Q96LD8); experiment: SENP8 protease inhibitors, SAR follow-up, biochemical, luminescence, set 2 (AID 588601); type: functional
T3 sequence (Q96LD8 whole entry): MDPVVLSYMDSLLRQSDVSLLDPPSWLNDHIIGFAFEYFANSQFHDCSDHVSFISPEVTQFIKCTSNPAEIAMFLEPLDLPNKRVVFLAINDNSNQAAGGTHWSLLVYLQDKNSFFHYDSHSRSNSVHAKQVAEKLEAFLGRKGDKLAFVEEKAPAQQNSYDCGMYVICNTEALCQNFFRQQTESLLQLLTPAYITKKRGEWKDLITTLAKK

[10] = target: T4, Sentrin-specific protease 6 (Homo sapiens, UniProt Q9GZR1); experiment: SENP6 protease inhibitors, SAR follow-up, biochemical, luminescence, set 2 (AID 588598); type: functional
T4 sequence (Q9GZR1 whole entry): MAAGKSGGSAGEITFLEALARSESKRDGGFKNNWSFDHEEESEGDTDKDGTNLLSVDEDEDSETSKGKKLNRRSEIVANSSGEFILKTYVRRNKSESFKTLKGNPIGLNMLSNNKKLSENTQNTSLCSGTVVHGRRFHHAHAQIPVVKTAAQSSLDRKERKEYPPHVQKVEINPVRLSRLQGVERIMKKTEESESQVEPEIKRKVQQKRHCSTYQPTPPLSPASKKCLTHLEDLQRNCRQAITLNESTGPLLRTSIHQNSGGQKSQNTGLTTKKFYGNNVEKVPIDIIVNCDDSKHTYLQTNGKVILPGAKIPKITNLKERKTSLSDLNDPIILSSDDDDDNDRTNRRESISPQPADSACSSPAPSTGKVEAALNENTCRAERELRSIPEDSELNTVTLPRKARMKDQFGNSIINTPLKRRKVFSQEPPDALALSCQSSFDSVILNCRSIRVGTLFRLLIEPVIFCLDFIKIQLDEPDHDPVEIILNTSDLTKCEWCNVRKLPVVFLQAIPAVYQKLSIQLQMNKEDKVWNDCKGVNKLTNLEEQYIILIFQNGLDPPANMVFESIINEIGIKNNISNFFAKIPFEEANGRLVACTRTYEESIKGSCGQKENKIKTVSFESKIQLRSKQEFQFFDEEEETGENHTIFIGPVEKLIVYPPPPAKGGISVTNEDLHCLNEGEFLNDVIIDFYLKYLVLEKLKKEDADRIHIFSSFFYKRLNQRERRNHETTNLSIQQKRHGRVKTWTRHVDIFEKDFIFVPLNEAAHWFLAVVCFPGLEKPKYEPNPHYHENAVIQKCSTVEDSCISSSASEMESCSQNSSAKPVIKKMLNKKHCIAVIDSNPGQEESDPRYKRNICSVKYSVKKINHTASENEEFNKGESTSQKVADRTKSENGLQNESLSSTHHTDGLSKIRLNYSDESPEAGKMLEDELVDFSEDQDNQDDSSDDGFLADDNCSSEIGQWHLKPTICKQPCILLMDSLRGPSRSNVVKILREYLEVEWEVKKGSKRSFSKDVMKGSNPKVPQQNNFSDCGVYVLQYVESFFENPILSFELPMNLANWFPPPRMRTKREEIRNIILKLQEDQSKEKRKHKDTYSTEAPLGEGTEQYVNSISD

Caspase-3 = target: T5, Caspase-3 (Homo sapiens, UniProt P42574); experiment: caspase-3 inhibitors as off-family protease, SAR follow-up, selectivity assay for SENP protease inhibitor project, biochemical, luminescence, set 2 (AID 588599); type: functional
T5 sequence (P42574 whole entry): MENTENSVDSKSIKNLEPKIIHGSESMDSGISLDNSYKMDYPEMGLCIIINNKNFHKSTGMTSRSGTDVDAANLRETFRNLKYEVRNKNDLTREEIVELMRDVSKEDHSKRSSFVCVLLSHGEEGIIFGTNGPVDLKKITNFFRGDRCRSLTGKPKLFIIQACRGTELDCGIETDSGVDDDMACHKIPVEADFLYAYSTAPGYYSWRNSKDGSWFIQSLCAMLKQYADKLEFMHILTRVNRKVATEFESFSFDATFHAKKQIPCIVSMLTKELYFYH

[11] = target: T6, Sentrin-specific protease 7 (Homo sapiens, UniProt Q9BQF6); experiment: SENP7 protease inhibitors, SAR follow-up, biochemical, luminescence, set 2 (AID 588600); type: functional
T6 sequence (Q9BQF6 whole entry): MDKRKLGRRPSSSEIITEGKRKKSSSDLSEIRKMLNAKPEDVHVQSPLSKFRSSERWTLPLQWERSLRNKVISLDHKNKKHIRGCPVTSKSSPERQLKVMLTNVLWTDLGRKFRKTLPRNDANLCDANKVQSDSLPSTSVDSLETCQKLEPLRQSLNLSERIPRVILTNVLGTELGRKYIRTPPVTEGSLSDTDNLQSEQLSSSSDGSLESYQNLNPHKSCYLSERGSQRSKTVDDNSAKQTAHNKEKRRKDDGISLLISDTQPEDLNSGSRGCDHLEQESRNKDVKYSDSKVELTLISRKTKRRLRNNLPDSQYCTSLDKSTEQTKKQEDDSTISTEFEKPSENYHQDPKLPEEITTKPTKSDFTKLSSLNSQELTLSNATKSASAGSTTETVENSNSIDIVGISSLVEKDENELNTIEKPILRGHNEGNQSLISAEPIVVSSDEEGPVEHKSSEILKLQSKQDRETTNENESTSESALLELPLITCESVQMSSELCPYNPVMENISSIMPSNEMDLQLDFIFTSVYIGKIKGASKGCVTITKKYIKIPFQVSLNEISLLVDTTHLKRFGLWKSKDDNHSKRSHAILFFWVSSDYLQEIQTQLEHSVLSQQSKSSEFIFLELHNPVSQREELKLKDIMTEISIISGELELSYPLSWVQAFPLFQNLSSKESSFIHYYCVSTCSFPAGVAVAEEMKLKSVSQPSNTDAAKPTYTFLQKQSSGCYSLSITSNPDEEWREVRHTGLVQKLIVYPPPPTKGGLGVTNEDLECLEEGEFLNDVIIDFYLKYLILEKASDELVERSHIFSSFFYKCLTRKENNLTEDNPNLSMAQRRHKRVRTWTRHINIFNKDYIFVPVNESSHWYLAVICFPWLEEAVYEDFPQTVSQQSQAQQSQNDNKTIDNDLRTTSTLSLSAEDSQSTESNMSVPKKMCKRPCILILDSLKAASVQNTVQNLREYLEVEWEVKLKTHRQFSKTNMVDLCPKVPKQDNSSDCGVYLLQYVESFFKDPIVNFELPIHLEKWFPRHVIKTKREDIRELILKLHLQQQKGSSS

Melanocortin receptor 4 = Melanocortin receptor 4 (Homo sapiens, UniProt P32245); type: functional, cell-based;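 note: Cell-based assay with luminescence read-out, confirmatory dose-response testing for agonist activity of biased ligands at MC4R; human U2OS cells with tagged receptor and beta-arrestin; potency of agonists that increase receptor coupling to beta-arrestin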
Melanocortin receptor 4, sequence (P32245 whole entry): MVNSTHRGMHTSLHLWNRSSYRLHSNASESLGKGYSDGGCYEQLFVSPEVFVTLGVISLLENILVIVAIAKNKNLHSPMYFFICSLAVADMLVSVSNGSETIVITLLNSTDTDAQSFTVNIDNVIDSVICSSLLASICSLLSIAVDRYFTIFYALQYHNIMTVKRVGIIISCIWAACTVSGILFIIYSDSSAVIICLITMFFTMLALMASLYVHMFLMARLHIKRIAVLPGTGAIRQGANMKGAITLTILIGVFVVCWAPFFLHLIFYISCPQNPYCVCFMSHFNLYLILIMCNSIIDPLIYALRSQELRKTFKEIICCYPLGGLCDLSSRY

Aurora kinase B = Aurora kinase B (Homo sapiens, UniProt Q96GD4); type: functional
Aurora kinase B, sequence (Q96GD4 whole entry): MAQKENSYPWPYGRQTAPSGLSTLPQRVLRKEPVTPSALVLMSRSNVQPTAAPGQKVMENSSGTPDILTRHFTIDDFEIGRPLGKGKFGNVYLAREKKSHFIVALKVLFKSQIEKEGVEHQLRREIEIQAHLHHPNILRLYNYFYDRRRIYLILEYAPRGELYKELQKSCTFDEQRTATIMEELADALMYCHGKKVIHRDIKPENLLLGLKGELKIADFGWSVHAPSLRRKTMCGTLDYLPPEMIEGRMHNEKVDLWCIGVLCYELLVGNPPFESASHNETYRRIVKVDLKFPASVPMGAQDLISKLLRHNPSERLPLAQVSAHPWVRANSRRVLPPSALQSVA

Aurora kinase A = Aurora kinase A (Homo sapiens, UniProt O14965); type: functional;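 note: value from the Navigating the Kinome kinase panel profiling, panel entry STK6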
Aurora kinase A, sequence (O14965 whole entry): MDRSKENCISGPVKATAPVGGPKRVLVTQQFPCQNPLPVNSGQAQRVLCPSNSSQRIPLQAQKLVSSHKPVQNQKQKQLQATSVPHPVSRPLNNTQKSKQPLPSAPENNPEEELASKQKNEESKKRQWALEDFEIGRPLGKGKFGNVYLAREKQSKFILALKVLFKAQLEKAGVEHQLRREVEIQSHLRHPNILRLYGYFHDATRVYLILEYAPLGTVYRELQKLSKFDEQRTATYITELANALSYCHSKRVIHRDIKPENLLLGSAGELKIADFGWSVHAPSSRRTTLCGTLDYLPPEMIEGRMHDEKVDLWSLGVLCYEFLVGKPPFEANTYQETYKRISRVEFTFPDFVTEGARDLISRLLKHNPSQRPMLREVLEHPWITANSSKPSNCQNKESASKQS

[12] = target: Vascular endothelial growth factor receptor 2 (Homo sapiens, UniProt P35968); type: functional
Vascular endothelial growth factor receptor 2, sequence (P35968 whole entry): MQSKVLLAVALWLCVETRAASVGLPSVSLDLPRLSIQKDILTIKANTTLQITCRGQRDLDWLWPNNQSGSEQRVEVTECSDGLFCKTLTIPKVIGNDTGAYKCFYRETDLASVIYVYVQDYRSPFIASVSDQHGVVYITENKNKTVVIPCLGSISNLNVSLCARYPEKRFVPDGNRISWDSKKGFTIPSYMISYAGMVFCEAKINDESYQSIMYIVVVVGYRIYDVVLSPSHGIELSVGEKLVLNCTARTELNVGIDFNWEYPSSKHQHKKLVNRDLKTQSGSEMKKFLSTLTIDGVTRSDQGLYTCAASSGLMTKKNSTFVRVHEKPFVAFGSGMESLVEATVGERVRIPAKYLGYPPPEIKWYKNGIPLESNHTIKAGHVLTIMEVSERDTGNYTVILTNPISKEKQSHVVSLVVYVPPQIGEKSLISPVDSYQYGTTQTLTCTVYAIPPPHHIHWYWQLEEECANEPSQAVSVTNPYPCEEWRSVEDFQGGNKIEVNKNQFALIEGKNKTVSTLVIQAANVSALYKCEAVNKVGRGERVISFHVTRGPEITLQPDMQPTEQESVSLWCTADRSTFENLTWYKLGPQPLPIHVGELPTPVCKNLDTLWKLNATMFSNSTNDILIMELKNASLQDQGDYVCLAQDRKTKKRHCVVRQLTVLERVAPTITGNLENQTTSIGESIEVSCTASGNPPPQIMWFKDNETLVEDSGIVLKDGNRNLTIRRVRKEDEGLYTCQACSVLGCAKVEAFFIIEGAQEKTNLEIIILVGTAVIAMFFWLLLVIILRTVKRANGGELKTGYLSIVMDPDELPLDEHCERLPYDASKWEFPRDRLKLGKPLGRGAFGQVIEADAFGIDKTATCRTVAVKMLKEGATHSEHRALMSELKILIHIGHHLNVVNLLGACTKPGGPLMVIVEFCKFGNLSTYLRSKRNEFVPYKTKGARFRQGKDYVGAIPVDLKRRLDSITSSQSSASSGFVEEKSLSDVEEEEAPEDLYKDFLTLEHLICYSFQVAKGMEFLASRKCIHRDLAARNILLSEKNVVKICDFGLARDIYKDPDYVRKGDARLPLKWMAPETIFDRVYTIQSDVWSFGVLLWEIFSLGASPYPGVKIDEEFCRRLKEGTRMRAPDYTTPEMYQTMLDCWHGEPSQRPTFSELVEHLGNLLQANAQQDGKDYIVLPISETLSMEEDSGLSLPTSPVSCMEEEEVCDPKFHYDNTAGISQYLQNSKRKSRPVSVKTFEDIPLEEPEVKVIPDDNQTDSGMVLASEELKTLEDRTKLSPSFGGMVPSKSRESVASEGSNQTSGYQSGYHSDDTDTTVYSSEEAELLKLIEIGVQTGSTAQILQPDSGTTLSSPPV

## Cc1nc2c(-c3ccc(Cl)cc3)cnn2c2c1CCC2
Orexin receptor type 2 [1]
  IC50: > 88.8 µM (inactive)
[2]
  IC50: > 49.8 µM (inactive)
H4
  EC50: 24.5 µM (active)
Orexin receptor type 2 [3]
  IC50: > 50 µM (inactive)
[4]
  EC50: 11.1 µM (active)
[5]
  EC50: > 120 µM (not active)
CHO-K1
  IC50: > 66.3 µM (inactive)
[6]
  IC50: 15 µM (inactive)
[7]
  IC50: 4.59 µM (active)

## COC(=O)c1ccc(COC(=O)C2CCN(S(=O)(=O)c3ccc(C)c(C)c3)CC2)o1
[8]
  IC50: 12.4 µM (inactive)

## CCn1c2ccccc2c2cc(NC(=O)c3cccc(OC)c3)ccc21
Orexin receptor type 2 [1]
  IC50: 77.6 µM (inactive)
[2]
  IC50: > 49.8 µM (inactive)
H4
  EC50: 40.1 µM (active)
Orexin receptor type 2 [3]
  IC50: > 50 µM (inactive)
[4]
  EC50: 56.6 µM (active)
[5]
  EC50: 34.8 µM (active)
CHO-K1
  IC50: > 66.2 µM (inactive)
[6]
  IC50: 0.965 µM (active)
[7]
  IC50: 0.2 µM (active)

## COc1ccc(N2CCN(C(=O)C(=O)c3c(C)[nH]c4ccccc34)CC2)cc1
[9]
  IC50: > 99 µM (inactive)
[10]
  IC50: > 99 µM (inactive)
Caspase-3
  IC50: > 99 µM (inactive)
[11]
  IC50: > 99 µM (inactive)

## NC(Cc1ccc(C(F)(F)F)cc1)c1csc(NC(=O)Nc2ccccc2Cl)n1 (stereo not given)
Melanocortin receptor 4
  EC50: > 89.2 µM (inactive)

## Cc1ccc(-c2c(C#N)c(N)nc3cc(C)nn23)cc1
Aurora kinase B
  Ki: 100 nM (active)
Aurora kinase A
  Ki: 501 nM (active)
[12]
  Ki: 3.98 µM (active)

## CCCCN1CCN(c2ccc(-c3nc4c(C(N)=O)cccc4[nH]3)cn2)CC1
Aurora kinase B
  Ki: 79.4 nM (active)
Aurora kinase A
  Ki: 1260 nM (active)
[12]
  Ki: > 5.01 µM (inactive)
